Patent publication US5356790A, “Highly sensitive assay method for myo-inositol, composition for practicing same, novel myo-inositol dehydrogenase, and process for producing same” (Asahi Kasei Kogyo Kabushiki Kaisha, priority 1990, dated 1994)
Where “and” joins values, the source holds several entries; their conditions need not be identical. Equal values may be shown once. Read-outs that look alike come from different tables or passages of the source.

Columns and labels:
[1] = tested on: myo-inositol dehydrogenase; conditions: enzyme produced by yeast Cryptococcus melibiosum, cited from earlier work
[2] = tested on: myo-inositol dehydrogenase; test: Km-value measurement for substrate and coenzymes; assay type: biochemical, Bacillus sp. No. 3
Method: Km-value for myo-inositol is measured at various concentrations of myo-inositol in a reaction mixture of:
Further in the reaction mixture, 1 mM NAD is replaced by 1 mM thio-NAD (Sigma Co. ) and the Km-value for myo-inositol is measured. The result is Km-value: 10.0 mM (myo-inositol).
Km-value in the reaction of NADP and myo-inositol are measured. The results are as follows:
Km-values in the reaction of the thio-NADP and myo-inositol are as follows: […]

[3] = tested on: myo-inositol dehydrogenase; test: Substrate specificity of myo-inositol dehydrogenase; assay type: biochemical, Bacillus sp. No. 3; conditions: myo-inositol = 100%
Method: 1. Substrate specificity:
The above reaction mixture (1 ml) is incubated in a small test tube at 37° C. for 5 mins. Diluted enzyme solution (0.02 ml) is added and the mixture is stirred to initiate the reaction. After exactly 10 mins., 0.1N HCl (2.0 ml) was added and the mixture is stirred to stop the reaction. Absorption at 550 nm (A550 nm) is measured to obtain absorption A1. The assay was repeated using the above reaction mixture except that myo-inositol was not included. The mixture is also treated in the same manner as described above and its absorption Ao was measured.
(3) Calculation of enzyme activity: [formula] wherein

[4] = tested on: myo-inositol dehydrogenase; test: Relative activity with coenzyme thio-NAD compared to NAD; assay type: biochemical, Bacillus sp. No. 3

Compound	Substrate specificity (relative activity) [3] [%]	other results
NC(=O)c1ccc[n+]([C@@H]2O[C@H](COP(=O)([O-])OP(=O)(O)OC[C@H]3O[C@@H](n4cnc5c(N)ncnc54)[C@H](O)[C@@H]3O)[C@@H](O)[C@H]2O)c1 [NAD, nicotinamide adenine dinucleotide]	–	Km ([1]; read-out: Km value for NAD): ~70 µM
NC(=O)c1ccc[n+]([C@@H]2O[C@H](COP(=O)([O-])OP(=O)(O)OC[C@H]3O[C@@H](n4cnc5c(N)ncnc54)[C@H](OP(=O)(O)O)[C@@H]3O)[C@@H](O)[C@H]2O)c1 [NADP, nicotinamide adenine dinucleotide phosphate]	–	Km ([2]; reaction of NADP and myo-inositol, read-out: Km-value (NADP)): 190 µM
O=C(CO)[C@@H](O)[C@H](O)[C@H](O)CO [fructose]	0	–
OC[C@H]1O[C@@H](O[C@H]2[C@H](O)[C@@H](O)C(O)O[C@@H]2CO)[C@H](O)[C@@H](O)[C@H]1O (stereo partly drawn) [lactose]	0	–
OC[C@H]1O[C@H](O[C@H]2[C@H](O)[C@@H](O)[C@H](O)O[C@@H]2CO)[C@H](O)[C@@H](O)[C@@H]1O [maltose]	0	–
O[C@H]1[C@H](O)[C@@H](O)[C@H](O)[C@@H](O)[C@H]1O [myo-inositol]	100	Km ([2]; coenzyme 1 mM NAD, Tris-HCl buffer pH 8.5, read-out: Km-value (myo-inositol)): 640 µM and ~600 µM; Km ([2]; coenzyme 1 mM thio-NAD, read-out: Km-value (myo-inositol)): 10000 µM; Km ([2]; reaction of NADP and myo-inositol, read-out: Km-value (myo-inositol)): 30900 µM; Km ([1]; read-out: Km value for myo-inositol): ~11000 µM
OC[C@H]1O[C@@](CO)(O[C@H]2O[C@H](CO)[C@@H](O)[C@H](O)[C@H]2O)[C@@H](O)[C@@H]1O [saccharose]	0	–
OC[C@@H](O)[C@@H](O)[C@H](O)[C@@H](O)CO [sorbitol]	0	–
NC(=S)c1ccc[n+]([C@@H]2O[C@H](COP(=O)([O-])OP(=O)(O)OC[C@H]3O[C@@H](n4cnc5c(N)ncnc54)[C@H](O)[C@@H]3O)[C@@H](O)[C@H]2O)c1 [thio-NAD, thionicotinamide adenine dinucleotide]	–	Km ([2]; 150 mM myo-inositol, read-out: Km-value (thio-NAD)): 170 µM; Relative activity when coenzyme thio-NAD is used, as compared to NAD [4]: 10-15%
NC(=S)c1ccc[n+]([C@@H]2O[C@H](COP(=O)([O-])OP(=O)(O)OC[C@H]3O[C@@H](n4cnc5c(N)ncnc54)[C@H](OP(=O)(O)O)[C@@H]3O)[C@@H](O)[C@H]2O)c1 [thio-NADP, thionicotinamide adenine dinucleotide phosphate]	–	Km ([2]; reaction of thio-NADP and myo-inositol, read-out: Km-value (thio-NADP)): 2540 µM
galactose	0	–
glucose	0	–
mannose	0	–
